According to US9487546B2, “Solid forms of tenofovir” (Gilead Sciences, Inc., priority 2014, dated 2016):

Experiments:
Format in all cases: physicochemical
[1] = Thermogravimetric analysis (TGA) of Form I, dehydration; settings: under nitrogen purge, 10° C./min
Procedure: Thermogravimetric analysis (TGA) data was obtained using 2.01 mg PMPA Form I and was heated at a rate of 10° C./min over the range of 25 to 350° C. The solids lost about 6.1% water below 100° C., and the loss is very close to the theoretical water content of 5.9% for PMPA monohydrate.

[2] = XRPD patterns during heating (70, 80, 90° C.), form transition; settings: XRPD patterns at 70, 80, and 90° C. during the heating period
[3] = Storage of Form IV in a sealed vial, checked by XRPD; settings: kept in a sealed vial at ambient temperature
From the text: Form IV was obtained by keeping Form VI in water at ambient temperature for 3 weeks.

dehydration temperature (TGA) [1] | transition from monohydrate (Form I) to an anhydrous form [2] | change of sample by XRPD analysis on storage [3] | Structure (SMILES)
about 50 °C | around 80 °C |  | C[C@H](Cn1cnc2c(N)ncnc21)OCP(=O)(O)O [Form I, (R)-9-[2-(phosphonomethoxy)propyl]adenine]
 |  | did not change | C[C@H](Cn1cnc2c(N)ncnc21)OCP(=O)(O)O [Form IV, (R)-9-[2-(phosphonomethoxy)propyl]adenine]
